EC50 data for 29 compounds are collected here from patent US20240382482A1, “PLASMA KALLIKREIN INHIBITORS” (TAKEDA PHARMACEUTICAL COMPANY LIMITED, priority 2021, published 2024).

Sequence of human activated kallikrein enzyme (P03952 391-638 limits assumed): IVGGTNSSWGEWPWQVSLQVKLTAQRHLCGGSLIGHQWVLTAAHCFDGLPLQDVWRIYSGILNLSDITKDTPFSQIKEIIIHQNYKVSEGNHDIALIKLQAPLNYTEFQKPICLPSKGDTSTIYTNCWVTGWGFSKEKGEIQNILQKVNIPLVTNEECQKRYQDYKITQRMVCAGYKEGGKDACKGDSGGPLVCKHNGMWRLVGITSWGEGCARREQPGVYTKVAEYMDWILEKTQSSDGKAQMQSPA
Sequence of human activated kallikrein enzyme (P03952 20-390 partner limits assumed): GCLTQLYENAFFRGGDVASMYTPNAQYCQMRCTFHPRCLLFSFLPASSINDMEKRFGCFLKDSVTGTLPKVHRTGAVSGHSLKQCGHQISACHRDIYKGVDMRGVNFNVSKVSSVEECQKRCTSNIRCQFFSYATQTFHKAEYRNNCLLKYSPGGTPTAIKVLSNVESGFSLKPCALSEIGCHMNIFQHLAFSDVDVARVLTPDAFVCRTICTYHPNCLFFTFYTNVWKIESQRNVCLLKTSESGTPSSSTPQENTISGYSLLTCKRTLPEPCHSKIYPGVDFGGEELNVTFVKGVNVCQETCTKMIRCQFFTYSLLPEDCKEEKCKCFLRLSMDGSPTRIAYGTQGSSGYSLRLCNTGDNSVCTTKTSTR

This assay addresses human activated kallikrein enzyme (Homo sapiens, UniProt P03952). Briefly: Inhibition of human activated kallikrein enzyme, fluorogenic peptide substrate assay (500 pM enzyme format). Format: biochemical. The settings on record: 500 pM activated kallikrein, 300 μM PFR-AMC substrate, 30 min preincubation, 10 min reaction, room temperature; read-out: Primary Dose Response Assay: Average EC50. The procedure, abridged: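 500 pM enzyme preincubated 30 min at room temperature with inhibitor in 20 mM Tris pH 7.5, 150 mM NaCl, 1 mM EDTA, 0.1% PEG-400, 0.1% Triton X-100. Reaction started with 300 μM PFR-AMC and run 10 min at room temperature. AMC fluorescence read at ex 380/em 460 nm, and EC50 values reported as ranges.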
With `O=C(Cc1ncn2ccc(Cl)cc12)Nc1cc(NCc2cn3cc(C4CC4)cc(CN4CCOCC4)c3n2)ncn1` [Example 48, 2-(7-chloroimidazo[1,5-a]pyridin-1-yl)-N-(6-(((6-cyclopropyl-8-(morpholinomethyl)imidazo[1,2-a]pyridin-2-yl)methyl)amino)pyrimidin-4-yl)acetamide], the EC50 is at most 5 nM.
The value for `N#Cc1cc(C2CC2)cn2cc(CNc3cc(NC(=O)Cc4ncn5ccc(Cl)cc45)ncn3)nc12` [Example 13, 2-(7-chloroimidazo[1,5-a]pyridin-1-yl)-N-(6-(((8-cyano-6-cyclopropylimidazo[1,2-a]pyridin-2-yl)methyl)amino)pyrimidin-4-yl)acetamide] was at most 5 nM; that for `CCOC(=O)C(C)(C)Cc1cc(C2CC2)cn2cc(CNc3cc(NC(=O)Cc4ncn5ccc(Cl)cc45)ncn3)nc12` [Example 47, ethyl 3-(2-(((6-(2-(7-chloroimidazo[1,5-a]pyridin-1-yl)acetamido)pyrimidin-4-yl)amino)methyl)-6-cyclopropylimidazo[1,2-a]pyridin-8-yl)-2,2-dimethylpropanoate] was 5 to 50 nM; that for `C[C@H](C(=O)Nc1cc(NCc2cn3cc(C4CC4)ccc3n2)ncn1)[C@@H](C)c1cccc(Cl)c1` [Example 133, (2S,3R)-3-(3-chlorophenyl)-N-(6-(((6-cyclopropylimidazo[1,2-a]pyridin-2-yl)methyl)amino)pyrimidin-4-yl)-2-methylbutanamide] was over 9000 nM.
For `O=C(Cc1nncc2ccc(Cl)cc12)Nc1cc(NCc2cn3cc(C4CC4)ccc3n2)ncn1` [Example 105, 2-(7-chlorophthalazin-1-yl)-N-(6-(((6-cyclopropylimidazo[1,2-a]pyridin-2-yl)methyl)amino)pyrimidin-4-yl)acetamide] the value was 5 to 50 nM; for `COc1ccc(-n2cnnn2)c(CNc2cc(C(O)c3cn4cc(C5CC5)ccc4n3)ncn2)c1F` (centres unmarked) [Example 63, (6-cyclopropylimidazo[1,2-a]pyridin-2-yl)(6-((2-fluoro-3-methoxy-6-(H-tetrazol-1-yl)benzyl)amino)pyrimidin-4-yl)methanol], 5 to 50 nM.
On to `O=C(Cc1ncn2ccc(Cl)cc12)Nc1cc(NCc2cn3cc(C4CC4)ccc3n2)nc(C(F)(F)F)n1` [Example 101, 2-(7-chloroimidazo[1,5-a]pyridin-1-yl)-N-(6-(((6-cyclopropylimidazo[1,2-a]pyridin-2-yl)methyl)amino)-2-(trifluoromethyl)pyrimidin-4-yl)acetamide], for which the EC50 lay in the range of 5 to 50 nM.
The value for `CC(Nc1cc(NC(=O)Cc2ncn3ccc(Cl)cc23)ncn1)c1cn2cc(C3CC3)ccc2n1` (centres unmarked) [Example 45, 2-(7-chloroimidazo[1,5-a]pyridin-1-yl)-N-(6-((1-(6-cyclopropylimidazo[1,2-a]pyridin-2-yl)ethyl)amino)pyrimidin-4-yl)acetamide] was 5 to 50 nM.
The value for `Nc1nccc2c1CCC2Nc1cc(NCc2cn3cc(C4CC4)ccc3n2)ncn1` (centres unmarked) [Example 56, N^5-(6-(((6-cyclopropylimidazo[1,2-a]pyridin-2-yl)methyl)amino)pyrimidin-4-yl)-6,7-dihydro-5H-cyclopenta[c]pyridine-1,5-diamine] was 5 to 50 nM; that for `CCOC(=O)CCc1cc(C2CC2)cn2cc(COc3cc(NCc4c(C)cc(C(=N)N)cc4C)ncn3)nc12` [Example 96, ethyl 3-(2-(((6-((4-carbamimidoyl-2,6-dimethylbenzyl)amino)pyrimidin-4-yl)oxy)methyl)-6-cyclopropylimidazo[1,2-a]pyridin-8-yl)propanoate] was at most 5 nM.
The value for `N#Cc1cc(C2CC2)cn2cc(COc3cc(NC(=O)Cc4ncn5ccc(Cl)cc45)ncn3)nc12` [Example 22, 2-(7-chloroimidazo[1,5-a]pyridin-1-yl)-N-(6-((8-cyano-6-cyclopropylimidazo[1,2-a]pyridin-2-yl)methoxy)pyrimidin-4-yl)acetamide] was 5 to 50 nM.
Turning to `CCOC(=O)CCc1cc(C2CC2)cn2cc(CNc3cc(NC(=O)Cc4ncn5ccc(Cl)cc45)ncn3)nc12` [Example 38, ethyl 3-(2-(((6-(2-(7-chloroimidazo[1,5-a]pyridin-1-yl)acetamido)pyrimidin-4-yl)amino)methyl)-6-cyclopropylimidazo[1,2-a]pyridin-8-yl)propanoate], the EC50 is at most 5 nM.
The value for `O=C(Cn1ccc2ccc(Cl)cc21)Nc1cc(NCc2cn3cc(C4CC4)ccc3n2)ccn1` [Example 115, 2-(6-chloro-1H-indol-1-yl)-N-(4-(((6-cyclopropylimidazo[1,2-a]pyridin-2-yl)methyl)amino)pyridin-2-yl)acetamide] was 500 to 9000 nM.
For `O=C(Cc1ncn2ccc(Cl)cc12)Nc1cc(NCc2cn3cc(C4CC4)ccc3n2)nc(C(=O)O)n1` [Example 21, 4-(2-(7-chloroimidazo[1,5-a]pyridin-1-yl)acetamido)-6-(((6-cyclopropylimidazo[1,2-a]pyridin-2-yl)methyl)amino)pyrimidine-2-carboxylic acid] the value was at most 5 nM; for `O=C(Cc1ncn2ccc(Cl)cc12)Nc1cncnc1NCc1cn2cc(C3CC3)cc(CO)c2n1` [Example 41, 2-(7-chloroimidazo[1,5-a]pyridin-1-yl)-N-(4-(((6-cyclopropyl-8-(hydroxymethyl)imidazo[1,2-a]pyridin-2-yl)methyl)amino)pyrimidin-5-yl)acetamide], 5 to 50 nM.
For `O=C(Cc1ncn2ccc(Cl)cc12)Nc1cc(C(O)c2cn3cc(C4CC4)ccc3n2)ncn1` (centres unmarked) [Example 59, 2-(7-chloroimidazo[1,5-a]pyridin-1-yl)-N-(6-((6-cyclopropylimidazo[1,2-a]pyridin-2-yl)(hydroxy)methyl)pyrimidin-4-yl)acetamide] the value was at most 5 nM; for `COC(C(=O)Nc1cc(NCc2cn3cc(C4CC4)ccc3n2)ncn1)c1ncn2ccc(Cl)cc12` (centres unmarked) [Example 6, 2-(7-chloroimidazo[1,5-a]pyridin-1-yl)-N-(6-(((6-cyclopropylimidazo[1,2-a]pyridin-2-yl)methyl)amino)pyrimidin-4-yl)-2-methoxyacetamide], 50 to 500 nM; for `O=C(Nc1cc(NCc2cn3cc(C4CC4)ccc3n2)ccn1)C1CCc2ccc(Cl)cc2C1` (centres unmarked) [Example 120, 7-chloro-N-(4-(((6-cyclopropylimidazo[1,2-a]pyridin-2-yl)methyl)amino)pyridin-2-yl)-1,2,3,4-tetrahydronaphthalene-2-carboxamide], 500 to 9000 nM.
`Cc1cc(C(=N)NO)cc(C)c1CNc1cc(OCc2cn3cc(C4CC4)ccc3n2)nc(C(=O)O)n1` [Example 84, 4-((6-cyclopropylimidazo[1,2-a]pyridin-2-yl)methoxy)-6-((4-(N-hydroxycarbamimidoyl)-2,6-dimethylbenzyl)amino)pyrimidine-2-carboxylic acid]: the EC50 was 5 to 50 nM.
For `Cc1cc(C(=N)N)cc(C)c1CNc1cc(OCc2cn3cc(C4CC4)ccc3n2)nc(-c2nn[nH]n2)n1` [Example 91, 4-(((6-((6-cyclopropylimidazo[1,2-a]pyridin-2-yl)methoxy)-2-(2H-tetrazol-5-yl)pyrimidin-4-yl)amino)methyl)-3,5-dimethylbenzimidamide], the EC50 was at most 5 nM.
The value for `O=C(Cn1cnc2ccc(Cl)cc21)Nc1cc(NCc2cn3cc(C4CC4)ccc3n2)ccn1` [Example 28, 2-(6-chloro-1H-benzo[d]imidazol-1-yl)-N-(4-(((6-cyclopropylimidazo[1,2-a]pyridin-2-yl)methyl)amino)pyridin-2-yl)acetamide] was 500 to 9000 nM.
For `O=C(Cc1ncn2ccc(Cl)cc12)Nc1cc(OCc2cn3cc(C4CC4)ccc3n2)cnn1` [Example 32, 2-(7-chloroimidazo[1,5-a]pyridin-1-yl)-N-(5-((6-cyclopropylimidazo[1,2-a]pyridin-2-yl)methoxy)pyridazin-3-yl)acetamide] the value was at most 5 nM; for `CC(C(=O)Nc1cc(C(F)(F)c2cn3cc(C4CC4)ccc3n2)ncn1)c1ncn2ccc(Cl)cc12` (centres unmarked) [Example 61, 2-(7-chloroimidazo[1,5-a]pyridin-1-yl)-N-(6-((6-cyclopropylimidazo[1,2-a]pyridin-2-yl)difluoromethyl)pyrimidin-4-yl)propanamide], 500 to 9000 nM; for `CN(Cc1cn2cc(C3CC3)cc(N3CCCC3=O)c2n1)c1cc(NC(=O)Cc2ncn3ccc(Cl)cc23)ncn1` [Example 18], at most 5 nM.
For `CCOC(=O)CCc1nc(NCc2c(C)cc(C(=N)NO)cc2C)cc(OCc2cn3cc(C4CC4)ccc3n2)n1` [Example 73, ethyl 3-(4-((6-cyclopropylimidazo[1,2-a]pyridin-2-yl)methoxy)-6-((4-(N-hydroxycarbamimidoyl)-2,6-dimethylbenzyl)amino)pyrimidin-2-yl)propanoate] the value was 50 to 500 nM; for `O=C(Cc1cc(Cl)ccc1-c1nnn[nH]1)Nc1cc(NCc2cn3cc(C4CC4)ccc3n2)ncn1` [Example 10, 2-(5-chloro-2-(1H-tetrazol-5-yl)phenyl)-N-(6-(((6-cyclopropylimidazo[1,2-a]pyridin-2-yl)methyl)amino)pyrimidin-4-yl)acetamide], over 9000 nM; for `COc1ccc(C#N)c(CC(=O)Nc2cc(NCc3cn4cc(C5CC5)ccc4n3)ncn2)c1F` [Example 3, 2-(6-cyano-2-fluoro-3-methoxyphenyl)-N-(6-(((6-cyclopropylimidazo[1,2-a]pyridin-2-yl)methyl)amino)pyrimidin-4-yl)acetamide], 500 to 9000 nM.
With `O=C(/C=C/c1cccc(Cl)c1)Nc1cc(NCc2cn3cc(C4CC4)ccc3n2)ccn1` [Example 114, (E)-3-(3-chlorophenyl)-N-(4-(((6-cyclopropylimidazo[1,2-a]pyridin-2-yl)methyl)amino)pyridin-2-yl)acrylamide], the 50% effective concentration (EC50) fell in the range of 5 to 50 nM.
The value for `O=C(Cc1ncn2ccc(Br)c(F)c12)Nc1cc(NCc2cn3cc(C4CC4)ccc3n2)ncn1` [Example 53, 2-(7-bromo-8-fluoroimidazo[1,5-a]pyridin-1-yl)-N-(6-(((6-cyclopropylimidazo[1,2-a]pyridin-2-yl)methyl)amino)pyrimidin-4-yl)acetamide] was at most 5 nM.
